Source: patent US10105440B2, “Synthetic derivatives of MPL and uses thereof” (VARIATION BIOTECHNOLOGIES INC., priority 2011, dated 2018)

Columns and labels:
[1] = system: Human Peripheral Blood Mononuclear Cell (hPBMC); test: Cytokine induction assay (BD Cytometric Bead Array) in hPBMC culture supernatants; assay type: cell-based; settings: human PBMCs (n=3) stimulated 48 hours, CBA assay
Source text: The BD™ Cytometric Bead Array (CBA) Human inflammatory Cytokines Kit was used to quantitatively measure Tumor Necrosis Factor (TNF a), Interleukin-6 (IL-6) and Interleukin-1β (IL-1β) protein levels in single samples of Human Peripheral Blood Mononuclear Cell (hPBMC) culture supernatants pretreated with either the adjuvant PHAD or MAV4. The detection reagent provided in the kit was a mixture of phycoerythrin (PE)-conjugated antibodies, which provides a fluorescent signal in proportion to the amount of bound cytokine.
When the capture beads and detector reagent are incubated with an unknown sample containing recognized cytokines, sandwich complexes (capture bead+cytokine+detection reagent) are formed. These complexes are measured using flow cytometry.
To perform the assay lyophilized human inflammatory cytokine standards were reconstituted with assay diluent and serially diluted (standard curve for each protein covers a defined set of concentrations from […]) and test samples were diluted to the desired dilution factor using the assay diluent before mixing all assay tubes with capture beads (50 μl) and PE detection reagent (50 μl). […] Samples were then analyzed by flow cytometry and data was analyzed using FCAP Array Software. […]

[2] = Reverse phase HPLC analysis of adjuvant co-melted with 1-monopalmitoyl glycerol (thermostability); assay type: physicochemical
Experimental: Reverse phase HPLC analysis of PHAD and MAV4 co-melted with 1-monopalmitoyl glycerol at the inverted melt method temperature (Example 4) was used to evaluate the thermostability or thermolability of the two adjuvants under these thermal conditions. In the procedure, the samples were prepared as follows, in isopropanol (IPA) using 1.5 ml autoinjection vials as duplicates: PHAD: 20 μg PHAD+180 μg 1-monopalmitoyl glycerol (1:9 wt ratio); MAV4: 10 μg+90 μg 1-monopalmitoyl glycerol (1:9 wt ratio).
The samples were lyophilized overnight. The dried samples were melted for six minutes at 120° C. and 140° C. Each sample was then dissolved in IPA to give a concentration of 0.1 μg/μl for an HPLC load of 20 μL.

phosphorylated hexaacyl disaccharide [PHAD]
secretion of TNF-α, IL-1β and IL-6 [1]: induced dose-dependent immune responses
Area Under the Curve (AUC) of the HPLC peak ([2]; co-melted with 1-monopalmitoyl glycerol (1:9 wt), melted six minutes at 140° C. versus 120° C.): significant decrease
minor peaks (degradation) in the chromatogram ([2]; co-melted with 1-monopalmitoyl glycerol, melted at 120° C. and 140° C.): No minor peaks were observed
